Experimental data from patent publication US11760744B2, “Fused ring compounds” (Genentech, Inc., priority 2018, dated 2023).

Legend:
K-Ras G12C [1] = target: T1, K-Ras G12C (Homo sapiens, UniProt P01116, G12C); test: Western blot assay for in cell alkylation of K-Ras G12C (HCC1171 cells); assay type: cell-based; design: endogenous in cells; host or cells: HCC1171; conditions: 18 hours at 37° C., 7 point dose response
Description: Western Blot Assay for in Cell Alkylation of K-Ras G12C
HCC1171 cells were maintained in RPMI1640 supplemented with 10% FBS. Cells were plated in a 96-well plate at 20,000 cells/well and the following day compounds were added to the cells. After 18 hours at 37° C., cells were lysed in RIPA buffer (Sigma R0278) with 0.5% SDS and protease/phosphatase inhibitor cocktail. After through mixing to enable complete lysis, the lysates were cleared by centrifugation before 20 μl was transferred from each well and combined with loading buffer and reducing agent. After heating for 10 minutes at 95° C., 15 μl of each sample was loaded onto a 4-20% Tris-Glycine gel and electrophoresed at 110V for 165 minutes in SDS-PAGE running buffer. Gels were transferred to a nitrocellulose membrane, blocked for 1 hour and stained overnight at 4° C. with primary antibody against K-Ras (polyclonal Proteintech 12063-1-AP). The membrane was then washed thoroughly and counterstained with anti-rabbit IRDye 800CW (LI-COR 926-32211) for one hour at room temperature. After final washes, the membrane was imaged on a LI-COR Odyssey CLx at medium resolution. Alkylated K-Ras was visible by an electrophoretic shift from unmodified K-Ras. To quantify this affect, the LICOR software was used to draw a rectangle over alkylated and unalkylated bands for each well and measured the total fluorescent intensity (FI) in each of these bands. The following formula was then used to calculate % alkylation: FI(alkylated)/(FI(alkylated)+FI(unalkylated))*100 for each well.
A 7 point dose response curve was used to determine the IC50 for each compound. Cell alkylation data are presented below in Table 2.
Target sequence in this assay (P01116 1-188 isoform P01116-2 G12C): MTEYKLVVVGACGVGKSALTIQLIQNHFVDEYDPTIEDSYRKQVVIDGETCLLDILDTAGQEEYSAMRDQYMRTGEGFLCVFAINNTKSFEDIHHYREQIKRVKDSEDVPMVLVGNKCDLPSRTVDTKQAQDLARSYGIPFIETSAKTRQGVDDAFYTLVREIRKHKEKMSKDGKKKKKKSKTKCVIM

K-Ras G12C [2] = target: T1, K-Ras G12C; test: K-Ras G12C, SOS1, Raf RBD HTRF assay for inhibition of GTP exchange; assay type: biochemical; design: K-Ras G12C (residues 2-188) and SOS1 (residues 564-1049) had N-terminal 6-His; made in house; host or cells: E. coli; conditions: 18 hours preincubation with K-Ras G12C at room temperature; SOS1-mediated GTP exchange
Description: K-Ras G12C, SOS1, Raf RBD Homogeneous Time Resolved Fluorescence (HTRF) Assay for Inhibition of GTP Exchange
After 18 hours at room temperature, the SOS1 GTP exchange factor (1.67 nM during exchange, 1.25 nM final) was added to initiate nucleotide exchange to GTP (200 μM during exchange, 150 μM final). The level of GTP exchange was assessed by addition of a Ras binding domain derived from C-Raf and the HTRF detection antibodies Tb-anti-FLAG and D2-anti-his (Cis-Bio) at 50 nM, 1 nM and 12.5 nM, respectively. After 2 hours, the ratio of 665 nm to 615 nm emission with 320 nm excitation was measured on an Envision plate reader (Perkin Elmer).
The final reaction volume was 20 μl in a ProxiPlate-384F Plus (Perkin Elmer), in buffer containing 20 mM HEPES, 150 mM NaCl, 1 mM MgCl2, 0.1% BSA, 0.03% Tween-20 and 1 mM DTT. […] HTRF data are presented below in Table 2.
Target sequence in this assay (P01116 2-188 isoform P01116-2 G12C): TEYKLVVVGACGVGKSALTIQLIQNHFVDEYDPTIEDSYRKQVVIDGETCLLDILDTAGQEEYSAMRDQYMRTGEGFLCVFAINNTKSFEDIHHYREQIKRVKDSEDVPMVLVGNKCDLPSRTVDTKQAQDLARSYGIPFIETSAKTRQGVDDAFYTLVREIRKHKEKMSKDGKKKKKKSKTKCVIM

SMILES | EC50 (K-Ras G12C [1]) [nM] | IC50 (K-Ras G12C [2]) [nM]
C=CC(=O)N1CCN(c2nc(OCC3CCC(=O)N3)nc3c2CCC(c2cc(O)cc4ccccc24)C3)[C@@H](C)C1 (stereo partly drawn) [Example 55a, 5-(((4-((S)-4-acryloyl-2-methylpiperazin-1-yl)-7-(3-hydroxynaphthalen-1-yl)-5,6,7,8-tetrahydroquinazolin-2-yl)oxy)methyl)pyrrolidin-2-one] | 6700 | 1400
C=CC(=O)N1CCN(c2nc(OC[C@@H]3CCCN3C)nc3c2C[C@H](C)[C@@H](c2nc(N)ccc2C(F)(F)F)C3)[C@@H](C)C1 (single isomer, unassigned) [Example 41a] | 880 | 500
C=CC(=O)Oc1cc(C2CCc3c(nc(OC[C@@H]4CCCN4C)nc3N3CCN(C(=O)C=C)C(CC#N)C3)C2)c2ccccc2c1 (stereo partly drawn) [Example 59a, 4-(4-(4-acryloyl-3-(cyanomethyl)piperazin-1-yl)-2-(((S)-1-methylpyrrolidin-2-yl)methoxy)-5,6,7,8-tetrahydroquinazolin-7-yl)naphthalen-2-yl acrylate] | 29 | 250
C=C(F)C(=O)N1CCN(c2nc(OC[C@@H]3CCCN3C)nc3c2CC[C@H](c2cc(O)cc4ccccc24)C3)C[C@@H]1CC#N (single isomer, unassigned) [Example 61c] | 1800 | 83
C#CC[C@@H]1CN(c2nc(OC[C@@H]3CCCN3C)nc3c2C[C@H](C)[C@@H](c2cccc4c2CCC4)C3)CCN1C(=O)C=C (single isomer, unassigned) [Example 40c] | 1000 | 1200
C=CC(=O)N1CCN(c2nc(OC[C@@H]3CCCN3C)nc3c2C[C@H](C)[C@@H](c2cccc4c2CCC4)C3)C[C@H]1CC#N (single isomer, unassigned) [Example 35a] | 550 | 190
C=CC(=O)N1CCN(c2nc(OC[C@H]3COC(=O)N3C)nc3c2CC[C@H](c2cc(O)cc4ccccc24)C3)[C@@H](C)C1 (single isomer, unassigned) [Example 57d] | 880 | 45
C=CC(=O)N1CCN(c2nc(OC[C@@H]3C[C@@H](F)CN3C)nc3c2C[C@H](CC)[C@@H](c2c(F)c(N)cc(C)c2C(F)(F)F)C3)[C@@H](C)C1 (single isomer, unassigned) [Example 37b] | 1000 | 2200
C=CC(=O)N1CCN(c2nc(OC[C@@H]3C[C@@H](F)CN3C)nc3c2C[C@@H](C)[C@H](c2nc(N)cc(C)c2C2CC2)C3)[C@@H](C)C1 (single isomer, unassigned) [Example 24b] | 490 | 21
C=CC(=O)N1CCN(c2ncnc3c2CC[C@H](c2nc(N)cc4ccccc24)C3)CC1 (single isomer, unassigned) [Example 3b] | 5500 | 710
C=CC(=O)N1CCN(c2ncnc3c2CC[C@@H](c2nc(N)cc(C)c2C(F)(F)F)C3)CC1 [Example 26b, (R)-1-(4-(7-(6-amino-4-methyl-3-(trifluoromethyl)pyridin-2-yl)-5,6,7,8-tetrahydroquinazolin-4-yl)piperazin-1-yl)prop-2-en-1-one] | 17000 | 4800
C=CC(=O)N1CCN(c2ncnc3c2C[C@@H](C)[C@@H](c2nc(N)cc(C)c2C(F)(F)F)C3)CC1 (single isomer, unassigned) [Example 1a] | 10000 | > 50000
C#CC[C@@H]1CN(c2nc(OC[C@@H]3CCCN3C)nc3c2C[C@@H](C)[C@H](c2cccc4c2CCC4)C3)CCN1C(=O)C=C (single isomer, unassigned) [Example 40d] | 1000 | 29
C=CC(=O)N1CCN(c2ncnc3c2CC[C@H](c2nc(N)ccc2C(F)(F)F)C3)CC1 (single isomer, unassigned) [Example 46b] | 970 | 230
C=CC(=O)N1CCN(c2nc(OC[C@@H]3C[C@@H](F)CN3C)nc3c2C[C@@H](C)[C@H](c2nc(NC)cc(C)c2C(F)(F)F)C3)[C@@H](C)C1 (single isomer, unassigned) [Example 5b] | 180 | 45
C=CC(=O)N1CCC(C#N)(c2nc(OC[C@@H]3CCCN3C)nc3c2CCC(c2cc(O)cc4ccccc24)C3)CC1 (stereo partly drawn) [Example 7a, 4-[7-(3-hydroxy-1-naphthyl)-2-[[(2S)-1-methylpyrrolidin-2-yl]methoxy]-5,6,7,8-tetrahydroquinazolin-4-yl]-1-prop-2-enoyl-piperidine-4-carbonitrile] | 2500 | 87
C=C(F)C(=O)N1CCN(c2nc(OC[C@@H]3CCCN3C)nc3c2CC[C@@H](c2cc(O)cc4ccccc24)C3)C[C@@H]1CC#N (single isomer, unassigned) [Example 61e] | 1500 | 90
C=C(F)C(=O)N1CCN(c2nc(OC[C@@H]3CCCN3C)nc3c2CCC(c2cccc4ccccc24)C3)C[C@@H]1CC#N (single isomer, unassigned) [Example 47d] | 30 | < 10
C=CC(=O)N1CCN(c2nc(OC[C@@H]3CCCN3C)nc3c2C[C@@H](C)[C@H](c2c(C)c(C)cc(N)c2F)C3)[C@@H](C)C1 (single isomer, unassigned) [Example 11b] | 47 | < 10
C=CC(=O)N1CCN(c2nc(OC[C@@H]3CCCN3C)nc3c2C[C@@H](C(C)C)[C@H](c2nc(N)cc(C)c2C(F)(F)F)C3)[C@@H](C)C1 (single isomer, unassigned) [Example 33a] | 51 | < 10
C=CC(=O)N1CCN(c2nc(OC[C@@H]3CCCN3C)nc3c2CC[C@H](c2cc(O)cc4ccccc24)C3)C[C@H]1CC#N (single isomer, unassigned) [Example 58c] | 340 | 29
C=CC(=O)N1CCN(c2nc(OC[C@@H]3CCCN3C)nc3c2C[C@H](C(C)C)[C@@H](c2nc(N)cc(C)c2C(F)(F)F)C3)[C@@H](C)C1 (single isomer, unassigned) [Example 33b] | 2200 | 300
C=CC(=O)N1CCN(c2nc(OC[C@@H]3CCCN3C)nc3c2C[C@H](C)[C@@H](c2nc(N)cc(C)c2C(F)(F)F)C3)CC1 (single isomer, unassigned) [Example 20b] | 2100 | 1400
C=CC(=O)N1CCN(c2nc(OC[C@@H]3CCCN3C)nc3c2CCC(c2cc(O)cc4ccccc24)C3)CC1 (stereo partly drawn) [Example 49a, 1-[4-[7-(3-hydroxy-1-naphthyl)-2-[[(2S)-1-methylpyrrolidin-2-yl]methoxy]-5,6,7,8-tetrahydroquinazolin-4-yl]piperazin-1-yl]prop-2-en-1-one] | 170 | 23
C#CC[C@H]1CN(c2nc(OC[C@@H]3CCCN3C)nc3c2C[C@H](C)[C@@H](c2cccc4c2CCC4)C3)CCN1C(=O)C=C (single isomer, unassigned) [Example 40b] | 1000 | 560
C=CC(=O)N1CCN(c2ncnc3c2CCC(c2nc(N)cc(C)c2C(F)(F)F)C3)CC1 (centres unmarked) [Example 26, 1-[4-[7-[6-amino-4-methyl-3-(trifluoromethyl)-2-pyridyl]-5,6,7,8-tetrahydroquinazolin-4-yl]piperazin-1-yl]prop-2-en-1-one] | 2200 | 270
C=CC(=O)N1CCN(c2ncnc3c2C[C@@H](C)[C@H](c2nc(N)cc(C)c2C(F)(F)F)C3)CC1 (single isomer, unassigned) [Example 8b] | 89 | 45
CN1CCC[C@H]1COc1nc2c(c(N3CCN(C(=O)/C=C/CF)C(CC#N)C3)n1)CCC(c1cc(O)cc3ccccc13)C2 (mixture of isomers) [Example 62a, 2-(1-((E)-4-fluorobut-2-enoyl)-4-(7-(3-hydroxynaphthalen-1-yl)-2-(((S)-1-methylpyrrolidin-2-yl)methoxy)-5,6,7,8-tetrahydroquinazolin-4-yl)piperazin-2-yl)acetonitrile] | 14 | 18
